Test results reported in EP0492277A2, “Cephalosporin derivatives” (F. HOFFMANN-LA ROCHE AG, priority 1990, dated 1992).

Experiments:
Experiment in all cases: MIC, Agar Dilution Method
Format in all cases: cell-based
[1] = system: Enter. cloacae 5699
Experimental: (§1) In vitro activity of the compounds of the present invention was measured by the Minimum Inhibitory Concentration (MIC) in micrograms/ml utilizing the Agar Dilution Method, which is well known in the art, against a variety of gram-negative and gram-positive organisms.

[2] = system: Staph. aureus 1059B
Experimental: as §1

[3] = system: Ser. marcescens SM
Experimental: as §1

[4] = system: Prot. mirabilis 90
Experimental: as §1

[5] = system: Cit. freundi BS-16
Experimental: as §1

[6] = system: Str. pyogenes 4
Experimental: as §1

[7] = system: Str. faecalis ATCC 29212
Experimental: as §1

[8] = system: Prot. vulgaris 1028 BC
Experimental: as §1

[9] = system: Staph. aureus ATCC 29213
Experimental: as §1

[10] = system: Ps. aeruginosa 8780
Experimental: as §1

[11] = system: Prot. vulgaris ATCC 6380
Experimental: as §1

[12] = system: Staph. aureus Smith
Experimental: as §1

[13] = system: Ps. aeruginosa 18SH
Experimental: as §1

[14] = system: E. coli 257
Experimental: as §1

[15] = system: Ser. marcescens 1071
Experimental: as §1

[16] = system: E. coli ATCC 25922
Experimental: as §1

[17] = system: Ps. aeruginosa ATCC 27853
Experimental: as §1

[18] = system: Enter. cloacae P99
Experimental: as §1

[19] = system: Str. pneumoniae 6301
Experimental: as §1

[20] = system: Staph. aureus 753
Experimental: as §1

[21] = system: Staph. aureus 67
Experimental: as §1

[22] = system: E. coli TEM-1
Experimental: as §1

[23] = system: Ps. aeruginosa 5712
Experimental: as §1

[24] = system: Ps. aeruginosa 765
Experimental: as §1

[25] = system: K. pneumoniae A
Experimental: as §1

| Substance | IN VITRO MIC [1] [µg/mL] | IN VITRO MIC [2] [µg/mL] | IN VITRO MIC [3] [µg/mL] | IN VITRO MIC [4] [µg/mL] | IN VITRO MIC [5] [µg/mL] | IN VITRO MIC [6] [µg/mL] | IN VITRO MIC [7] [µg/mL] | IN VITRO MIC [8] [µg/mL] | IN VITRO MIC [9] [µg/mL] | IN VITRO MIC [10] [µg/mL] | IN VITRO MIC [11] [µg/mL] | IN VITRO MIC [12] [µg/mL] | IN VITRO MIC [13] [µg/mL] | IN VITRO MIC [14] [µg/mL] | IN VITRO MIC [15] [µg/mL] | IN VITRO MIC [16] [µg/mL] | IN VITRO MIC [17] [µg/mL] | IN VITRO MIC [18] [µg/mL] | IN VITRO MIC [19] [µg/mL] | IN VITRO MIC [20] [µg/mL] | further results |
| --- | --- | --- | --- | --- | --- | --- | --- | --- | --- | --- | --- | --- | --- | --- | --- | --- | --- | --- | --- | --- | --- |
| [6R-[6α,7β(Z)]]-7-[[(2-Amino-4-thiazolyl)[(1-carboxyl-1-methylethoxy)imino]acetyl]amino]-3-[[4-(3-carboxy-1-cyclopropyl-6-fluoro-1,4-dihydro-4-oxo-7-quinolinyl)-1-piperazinyl]methyl]-8-oxo 5-thia-1-azabicyclo[4.2.0]-oct-2-ene-2-carboxylic acid sodium salt [Compound A] | 1 | 4 | 1 | 2 | 0.125 | 0.25 | 8 | 1 | 8 | 8 | 0.5 | 8 | 2 | 0.25 | 1 | 0.25 | 8 | 0.5 | 0.25 | 8 | IN VITRO MIC [21]: 16 µg/mL; IN VITRO MIC [22]: 0.5 µg/mL; IN VITRO MIC [23]: 16 µg/mL; IN VITRO MIC [24]: 8 µg/mL; IN VITRO MIC [25]: 0.5 µg/mL |
| [6R-[6a,7β(Z)]]-7-[[(2-Amino-4-thiazolyl)[(carboxymethoxy)imino]acetyl]amino]-3-[[4-(3-carboxy-1-cyclopropyl-6-fluoro-1,4-dihydro-4-oxo-7-quinolinyl)-1-piperazinyl]methyl]-8-oxo-5-thia-1-azabicyclo[4.2.0]-oct-2-ene-2-carboxylic acid sodium salt [Compound B] | 1 | 2 | 1 | 2 | 1 | 0.125 | 16 | 1 | 8 | 8 | 0.25 | 8 | 4 | 0.25 | 2 | 0.5 | 16 | 0.25 | 0.25 | 8 | IN VITRO MIC [21]: 32 µg/mL; IN VITRO MIC [22]: 0.5 µg/mL; IN VITRO MIC [23]: 32 µg/mL; IN VITRO MIC [24]: 8 µg/mL; IN VITRO MIC [25]: 1 µg/mL |
